# Data published in publication PMC2992954 (Molecular bioSystems, 2009).
# Structures can show the parent of a compound that is named as a salt.
# Biological target: Sfp-PPTase (Bacillus subtilis, UniProt P39135)
# Test: Rhodamine/BHQ-2 dark quench assay
# Type: biochemical
# Sequence of Sfp-PPTase (P39135 whole entry): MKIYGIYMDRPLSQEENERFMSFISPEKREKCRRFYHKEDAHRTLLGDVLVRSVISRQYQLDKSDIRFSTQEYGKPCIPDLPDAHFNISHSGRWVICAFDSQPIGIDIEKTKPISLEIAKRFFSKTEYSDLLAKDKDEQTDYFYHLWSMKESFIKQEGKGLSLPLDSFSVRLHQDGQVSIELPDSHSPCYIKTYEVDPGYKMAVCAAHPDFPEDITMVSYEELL
smiles,measurement,value
"Nc1ncnc2c1ncn2[C@@H]1O[C@H](COP(=O)(O)O)[C@@H](OP(=O)(O)O)[C@H]1O [PAP 3, adenosine 3′, 5′-diphosphate sodium salt]",IC50,14.6 µM
